As a reminder, the Ki is the equilibrium dissociation constant of an inhibitor or competing ligand from its target.

Read-outs that look alike come from different tables or passages of the source. Bridge positions count the residues as written; N and C are the ends. Ends that are not written are not given here.

One experiment deals with PA1b receptor. As to the kind of experiment: Competitive ligand binding with 125I-PA1b on microsomal protein. Conditions: competition with 0.4 nM 125I-PA1b, 20 µg microsomal protein per assay, peptide 0.01 to 1000 nM, mean ± standard error, read-out: Ki (affinity to the PA1b receptor). As to the method: To evaluate the affinity of synthetic AG41 and its mutants to PA1b receptor, ligand binding studies were conducted ^125I-toxin [29]. […] Total binding was assessed using 20 µg per assay of microsomal protein (sedimenting at 45,000 g) and 0.4 nM of I^125-PA1b, while in the non-specific binding assays 1000 nM of unlabeled AG41 or alanine mutant peptide was added. The level of specific binding (i.e., total binding minus non-specific binding) was estimated based on three replicates. Competitive experiments were performed with 0.4 nM ^125I-PA1b (specific radioactivity of approximately 1000 Ci.mmol^−1) and competition was performed with AG41 and its alanine mutant peptides at concentrations ranging from 0.01 to 1000 nM.
(§1) The experimental Ki and LD5O data were assessed separately by non-linear regression analysis using the SIMFIT software package. Biological results are expressed as mean ± S.E. (standard error).

The subject of experiment [1] is Spodoptera frugiperda Sf9 insect cells. As to the kind of experiment: Viability assay (MTT) on cultured Sf9 insect cells. It counts as cell-based. Conditions: 24 h exposure, 27 °C, each concentration in triplicate, mean ± standard error, SEM. As to the method:
Viability assays were performed on Spodoptera frugiperda Sf9 insect cells in culture using the 3-(4,5-dimethylthiazol-2-yl)-2,5-diphenyltetrazolium bromide (MTT) protocol. Briefly, Sf9 cells lines were grown at 27 °C in Lonza’s culture medium, supplemented with 5% fetal bovine serum (FBS) and 0.1% gentamicin. Sf9 cells were seeded, in 96-well plates, 24 h prior to the experiments (15,000 cells/well) and were exposed to increasing concentrations of AG41 and its alanine mutant peptides for 24 h. Each concentration was performed in triplicate. Cell viability was determined by a colorimetric assay based on the ability of viable cells to reduce MTT. Cells were loaded with MTT solution (0.5 mg ml^−^1) and incubated at 27 °C for 2 h. Cell homogenates were used to measure absorbance at 550 nm using a microplate reader (MR 7000, Dynatech Laboratories Inc., Richmond, CA, USA).
as §1

For the sequence “ASCPNVGAVCSPAETKPCGNVKDCRCLPWGLFFGTCINPTG (also: bicyclic or more (positions not given here)) [F13A, single point alanine mutant of AG41 at Phe-13]”, at PA1b receptor, the Ki is over 1 µM.
For the sequence “ASCPNVGAVCSPFATKPCGNVKDCRCLPWGLFFGTCINPTG (also: bicyclic or more (positions not given here)) [E14A, single point alanine mutant of AG41 at Glu-14]”, the Ki on PA1b receptor (SEM) came out at 0.0012 ± 0.0013 µM.
As to “ASCPNVGAVCSPFETAPCGNVKDCRCLPWGLFFGTCINPTG (disulfide 3-24, 10-26, 18-36) [K16A]”, the “LD50 (insect cell toxicity)” value in experiment [1] turned out to be 10.0 ± 4.0 nM. Moreover, at PA1b receptor (SEM), the inhibitory constant (Ki) came to 0.0036 ± 0.0016 µM.
The corresponding values for “ASCPNVGAVCSPFETKPCGNVADCRCLPWGLFFGTCINPTG (disulfide 3-24, 10-26, 18-36) [K22A]” are 14.2 ± 6.3 nM and 0.0032 ± 0.0017 µM.
For “ASCPNVGAVCSPFETKPCGNVKACRCLPWGLFFGTCINPTG (disulfide 3-24, 10-26, 18-36) [D23A]”, in that order: 24 ± 9 nM and 0.0012 ± 0.0016 µM.
In the case of “ASCPNVGAVCSPFETKPCGNVKDCACLPWGLFFGTCINPTG (also: bicyclic or more (positions not given here)) [R25A, single point alanine mutant of AG41 at Arg-25]”, the Ki at PA1b receptor was over 1 µM.
As for “ASCPNVGAVCSPFETKPCGNVKDCRCAPWGLFFGTCINPTG (disulfide 3-24, 10-26, 18-36) [L27A]”, the “LD50 (insect cell toxicity)” value in experiment [1] came to 907 ± 46 nM. Moreover, the Ki on PA1b receptor (SEM) stood at 0.486 ± 0.011 µM.
For “ASCPNVGAVCSPFETKPCGNVKDCRCLPAGLFFGTCINPTG (disulfide 3-24, 10-26, 18-36) [W29A]”, in that order: 89.0 ± 3.7 nM and 0.0363 ± 0.0067 µM.
With “ASCPNVGAVCSPFETKPCGNVKDCRCLPWGAFFGTCINPTG (also: bicyclic or more (positions not given here)) [L31A, single point alanine mutant of AG41 at Leu-31]”, the Ki on PA1b receptor (SEM) was determined as 0.263 ± 0.008 µM.
On to “ASCPNVGAVCSPFETKPCGNVKDCRCLPWGLAFGTCINPTG (disulfide 3-24, 10-26, 18-36) [F32A]”, for which, in experiment [1], the “LD50 (insect cell toxicity)” value amounted to 122 ± 12 nM. For the same sequence, the Ki on PA1b receptor (SEM) turned out to be 0.0398 ± 0.015 µM.
For “ASCPNVGAVCSPFETKPCGNVKDCRCLPWGLFAGTCINPTG (disulfide 3-24, 10-26, 18-36) [F33A]”, in that order: 210 ± 8 nM and 0.015 ± 0.0048 µM.
The corresponding values for “ASCPNVGAVCSPFETKPCGNVKDCRCLPWGLFFGTCINPTG (disulfide 3-24, 10-26, 18-36) [AG41]” are 5.6 ± 1.8 nM and 0.0013 ± 0.0006 µM.

These data come from publication PMC10046687, “Residues of Legume AG41 Peptide Crucial to Its Bio-Insecticidal Activity” (Biomolecules, 2023).
